Measurements as given in patent US20240277637A1, “CAPSAICIN DERIVATIVES IN THE TREATMENT OF IDIOPATHIC PULMONARY FIBROSIS” (aXichem AB, priority 2021, published 2024).

Columns and labels:
[1] = test system: human corneal epithelial cells; test: Proliferation assay, PDGF-stimulated corneal epithelial proliferation (Example 1); type: cell-based; conditions: for IC50: Homo sapiens, Corneal epithelial cell, 10 ng/ml PDGF, 72 hours
Description: (§1) Primary isolated human corneal epithelial cells; Normal, Human cells (ATCC® PCS-700-010™) were maintained in culture at 37° C. with 5% CO2 and 95% humidity in serum reduced (5% fetal calf serum) modified promocell media (MPM) supplemented with 4 ng/ml fibronectin (FN), 2 ng/ml human recombinant vascular endothelial growth factor (VEGF) and 4 ng/ml basic fibroblast growth factor (bFGF).
(§2) Corneal cells were harvested by trypsinization at 37° C. and neutralized with trypsin-neutralizing solution. A suspension of 50,000 cells in MPM/DMEM was added to 25 ml flasks. The cells were incubated with phenylcapsaicin or SU9518 for 1 hour in cytokine-free medium at standard conditions and incubated for another 72 hours in the presence of final mediums (either with 10 ng/ml PDGF-AB+4 ng/ml FN, or with 2 ng/ml VEGF+4 ng/ml bFGF+4 ng/ml FN). The cells were then dispersed in trypsin, resuspended, and counted in a coulter counter.

[2] = test system: human corneal epithelial cells; test: Proliferation assay, VEGF+bFGF-stimulated corneal epithelial proliferation (Example 1); type: cell-based; conditions: Corneal epithelial cell, highest dose tested 10 uM, 72 hours, read-out: IC50, VEGF+bFGF-induced proliferation
Description: as §1, §2

SMILES: COc1cc(CNC(=O)CCCCC#Cc2ccccc2)ccc1O [Compound 2, N-(4-hydroxy-3-methoxybenzyl)-7-phenylhept-6-ynamide]
- IC50 ([1]; read-out: IC50, PDGF-induced epithelial proliferation): ~1000 nM
- IC50 ([1]; read-out: IC50, PDGF-induced proliferation): ~1000 nM
- selectivity for PDGF pathway ([1]; PDGF- versus VEGF+bFGF-induced proliferation, corneal cells): work selectively on the PDGF pathway
- IC50 [2]: > 10 µM
